According to the supplement of paper PMC3974653:
Structures can show the parent of a compound that is named as a salt.

Tested on: MTT (mouse pheochromocytoma)
Experiment: IC50 of cell viability (ATP content)
Details: (24 or 48 h)
How it was run: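 Library compounds in DMSO (23 nl by pintool, 8 concentrations, final 0.5 nM to 46 µM) were applied for 24 or 48 hrs to MTT mouse pheochromocytoma cells that had been cultured overnight at 37°C, 5% CO2 in white 1536-well plates. Cell viability was measured by CellTiter-Glo ATP luminescence, read after 15 minutes, with positive-control wells set at 100% and DMSO wells at 0%. A four-parameter logistic fit of the normalised signals yielded the IC50.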

| IC50 of cell viability [µM] | Structure (SMILES) |
| --- | --- |
| > 46 | Cc1ccc2nc(N)nc(O)c2c1Sc1ccncc1 [NOLATREXED] |
| > 46 | C#C[C@]1(O)CC[C@H]2[C@@H]3CCC4=C/C(=N\O)CC[C@H]4[C@@H]3CC[C@]21CC [NORELGESTROMIN] |
| > 46 | C[C@]12CCC3C(CCC/4=C/C(=O)CCC34)C1CC[C@@]2(O)C#C (stereo partly drawn) [NORETHINDRONE] |
| > 46 | CC(=O)O[C@@]1(CC[C@H]2[C@@H]3CCC/4=C/C(=O)CC[C@@H]4[C@H]3CC[C@]12C)C#C [NORETHISTERONE ACETATE] |
| > 46 | O=C1NC(=O)C2C3C=CC(C3)C12 (stereo not drawn) [NOREXIMIDUM] |
| > 46 | C#C[C@]1(OC(C)=O)CC[C@H]2[C@@H]3CCC4=C/C(=N/O)CC[C@@H]4[C@H]3CC[C@@]21CC [NORGESTIMATE] |
| > 46 | O=C1N=C2SCCN2C(=O)C1Cc1ccc(Cl)cc1 (stereo not drawn) [NUCLOMEDONUM] |
| > 46 | CC(=O)NC(CCC(N)=O)C(=O)O [Na-Acetyl-L-glutamine] |
| > 46 | COc1ccc2cc(CCC(C)=O)ccc2c1 [Nabumetone] |
| > 46 | NC(=O)c1ccc[n+]([C@@H]2O[C@@H](CO[P@@](=O)([O-])O[P@@](=O)(O)OC[C@@H]3O[C@@H](n4cnc5c(N)ncnc54)[C@@H](O)[C@H]3O)[C@H](O)[C@@H]2O)c1 [Nadide] |
| > 46 | CC1CCc2c(N3CCC(O)CC3)c(F)cc3c(=O)c(C(=O)O)cn1c23 (stereo not drawn) [Nadifloxacin] |
| > 46 | CC(C)(C)NC[C@H](O)COc1cccc2c1C[C@@H](O)[C@H](O)C2 [Nadolol] |
| > 46 | O.[Na+].CCOC1=CC=C2C=CC=CC2=C1C(=O)N[C@H]3[C@@H]4SC(C)(C)[C@@H]([N@@]4C3=O)C([O-])=O [Nafcillin sodium salt monohydrate] |
| > 46 | CC(C)(Oc1ccc(C2CCCc3ccccc32)cc1)C(=O)O (stereo not drawn) [Nafenopin] |
| > 46 | CCN(CC)CCOC(=O)[C@@H](Cc1cccc2ccccc12)C[C@H]1CCCO1 [Nafronyl oxalate] |
| > 46 | CN(C/C=C\c1ccccc1)Cc1cccc2ccccc12 [Naftifine hydrochloride] |
| > 46 | CCN1\C=C(\C(O)=O)C(=O)C2=CC=C(C)N=C12 [Nalidixic acid] |
| > 46 | c1ccc2ccccc2c1 [Naphthalene] |
| > 46 | CN[S+](=O)([O-])CCc1ccc2[nH]cc(C3CCN(C)CC3)c2c1 [Naratriptan Hydrochloride] |
| > 46 | C[C@@H]1O[C@@H](O[C@@H]2\C=C/C=C\C=C/C=C\C[C@H](C)OC(=O)/C=C\[C@H]3O[C@@H]3C[C@H](O)C[C@]3(O)C[C@@H](O)[C@@H](C(=O)O)[C@H](C2)O3)[C@H](O)[C@H](N)[C@@H]1O [Natamycin] |
| > 46 | CCCc1c2oc(C(=O)O)cc(=O)c2cc2c(=O)cc(C(=O)O)n(CC)c12 [Nedocromil] |
| > 46 | CCC/1=N/N(CCCN2CCN(CC2)C3=CC(=CC=C3)Cl)C(=O)N1CCOC4=CC=CC=C4 [Nefazodone hydrochloride] |
| > 46 | C/C=C1/NN(CCCN2CCN(c3cccc(Cl)c3)CC2)C(=O)N1CCOc1ccccc1 [Nefazodone hydrochloride] |

| IC50 of cell viability [µM] | Structure (SMILES) |
| --- | --- |
| > 46 | CN1CCO[C@H](c2ccccc2)c2ccccc2C1 [Nefopam hydrochloride] |
| > 46 | Cc1c(O)cccc1C(=O)N[C@@H](CSc1ccccc1)[C@H](O)CN1C[C@H]2CCCC[C@H]2C[C@H]1C(=O)NC(C)(C)C [Nelfinavir Mesylate] |
| > 46 | CNc1cc(OC)c(C(=O)NC2CCN(Cc3ccccc3)C2C)cc1Cl (stereo not drawn) [Nemonapride] |
| > 46 | CCOC(=O)c1cc(-c2ccccc2)nc2ccc(C)cc12 [Neocinchophen] |
| > 46 | NC[C@@H]1O[C@@H](O[C@H]2[C@@H](O)[C@H](O[C@@H]3[C@@H](O)[C@H](N)C[C@H](N)[C@H]3O[C@H]3O[C@H](CN)[C@@H](O)[C@H](O)[C@H]3N)O[C@@H]2CO)[C@H](N)[C@@H](O)[C@@H]1O [Neomycin Trisulfate Hydrate] |
| > 46 | NC(=O)Cc1cccc(C(=O)c2ccccc2)c1N [Nepafenac] |
| > 46 | C1CN\C(N1)=C/C2=CC=CC3=C2C=CC=C3 [Nephazoline] |
| > 46 | CCN[C@@H]1C[C@H](N)[C@H](O[C@@H]2O\C(=C/C[C@H]2N)CN)[C@@H](O)[C@@H]1O[C@@H]3OC[C@@](C)(O)[C@@H](NC)[C@H]3O [Netilmicin sulfate] |
| > 46 | Cc1ccnc2c1NC(=O)c1cccnc1N2C1CC1 [Nevirapine] |
| > 46 | NC(=O)c1cccnc1 [Niacinamide] |
| > 46 | O=C(CCNNC(=O)c1ccncc1)NCc1ccccc1 [Nialamide] |
| > 46 | CCCCC(CC)CCC(CC(C)C)OS(=O)(=O)[O-] (stereo not drawn) [NiaproofÆ 4] |
| > 46 | CC(CNC(=O)c1cccnc1)NC(=O)c1cccnc1 (stereo not drawn) [Nicaraven] |
| > 46 | O=C(OCC(COC(=O)c1cccnc1)(COC(=O)c1cccnc1)COC(=O)c1cccnc1)c1cccnc1 [Niceritrol] |
| > 46 | O=C(OCC1(COC(=O)c2cccnc2)CCCC(COC(=O)c2cccnc2)(COC(=O)c2cccnc2)C1O)c1cccnc1 [Nicomolol] |
| > 46 | O=C(NCCO[N+](=O)[O-])c1cccnc1 [Nicorandil] |
| > 46 | NC(=S)N/N=C/c1cccnc1 [Nicothiazone] |
| > 46 | Cn1c(NCCN(CCO)CCCc2ccc([N+](=O)[O-])cc2)cc(=O)n(C)c1=O [Nifekalant] |
| > 46 | CN1N(C2=CC=CC=C2)C(=O)C(=C1/C)/NC(=O)C3=CN=CC=C3 [Nifenazone] |
| > 46 | O=C(N/N=C\c1ccc([N+](=O)[O-])o1)c1ccc(O)cc1 [Nifuroxazide] |
| > 46 | C[C@H]1C[S+](=O)([O-])CCN1/N=C\c1ccc([N+](=O)[O-])o1 [Nifurtimox] |
| > 46 | CCN(CC)C(=O)c1cccnc1 [Nikethamide] |

| Structure (SMILES) | IC50 of cell viability [µM] |
| --- | --- |
| NC(=O)c1cc([N+](=O)[O-])cc([N+](=O)[O-])c1 [NITROMIDE] | > 46 |
| CN1Cc2c(N)cccc2C(c2ccccc2)C1.O=C(O)/C=C\C(=O)O (stereo not drawn) [NOMIFENSINE MALEATE] | > 46 |
| NCC(O)c1cccc(O)c1 (stereo not drawn) [NORFENEFRINE HYDROCHLORIDE] | > 46 |
| CC(CCc1ccccc1)NC(C)C(O)c1ccc(O)cc1 (stereo not drawn) [NYLIDRIN] | > 46 |
| CCCCCCCCCC(=O)O[C@H]1CC[C@H]2[C@@H]3CCC4=CC(=O)CC[C@@H]4[C@H]3CC[C@]12C [Nandrolone decanoate] | > 46 |
| Cc1cccc(C)c1NC(=O)CN1CCCC1=O [Nefiracetam] | > 46 |
| CC(C)NCC(O)c1ccc([N+](=O)[O-])cc1 (stereo not drawn) [Nifenalol] | > 46 |
| O=C(N/N=C/c1ccc([N+](=O)[O-])o1)c1cc([N+](=O)[O-])cc([N+](=O)[O-])c1O [Nifursol] | > 46 |
